Reference: ChEMBL document CHEMBL1799992, “Substituent effect on the preferred DNA binding mode and affinity of a homologous series of naphthalene diimides” (Bioorg Med Chem Lett, 2011)

Tests used:
Nucleic Acid [1] = test: Binding affinity to 20 mer AT-rich DNA in MES00 buffer at pH 6.3 by isothermal titration calorimetry; format: nucleic-acid assay
Nucleic Acid [2] = test: Binding affinity to 20 mer GC-rich DNA in MES00 buffer at pH 6.3 by isothermal titration calorimetry; format: nucleic-acid assay
Nucleic Acid [3] = test: Binding affinity to calf thymus DNA assessed as low affinity binding constant in MES00 buffer at pH 6.3 by isothermal titration calorimetry; format: nucleic-acid assay; details: Bos taurus
Nucleic Acid [4] = test: Binding affinity to calf thymus DNA assessed as high affinity binding constant in MES00 buffer at pH 6.3 by isothermal titration calorimetry; format: nucleic-acid assay; details: Bos taurus
Nucleic Acid [5] = test: Selectivity ratio of binding constant K for AT-rich DNA to binding constant K for GC-rich DNA; format: nucleic-acid assay
[6] = biological target: T1, DNA topoisomerase 1 (Homo sapiens) (UniProt P11387); test: Inhibition of human topoisomerase 1 assessed as minimum concentration required for complete re-supercoiling of pUC19 DNA after 1 hr using ethidium bromide staining by agarose gel electrophoresis
T1 sequence (whole entry): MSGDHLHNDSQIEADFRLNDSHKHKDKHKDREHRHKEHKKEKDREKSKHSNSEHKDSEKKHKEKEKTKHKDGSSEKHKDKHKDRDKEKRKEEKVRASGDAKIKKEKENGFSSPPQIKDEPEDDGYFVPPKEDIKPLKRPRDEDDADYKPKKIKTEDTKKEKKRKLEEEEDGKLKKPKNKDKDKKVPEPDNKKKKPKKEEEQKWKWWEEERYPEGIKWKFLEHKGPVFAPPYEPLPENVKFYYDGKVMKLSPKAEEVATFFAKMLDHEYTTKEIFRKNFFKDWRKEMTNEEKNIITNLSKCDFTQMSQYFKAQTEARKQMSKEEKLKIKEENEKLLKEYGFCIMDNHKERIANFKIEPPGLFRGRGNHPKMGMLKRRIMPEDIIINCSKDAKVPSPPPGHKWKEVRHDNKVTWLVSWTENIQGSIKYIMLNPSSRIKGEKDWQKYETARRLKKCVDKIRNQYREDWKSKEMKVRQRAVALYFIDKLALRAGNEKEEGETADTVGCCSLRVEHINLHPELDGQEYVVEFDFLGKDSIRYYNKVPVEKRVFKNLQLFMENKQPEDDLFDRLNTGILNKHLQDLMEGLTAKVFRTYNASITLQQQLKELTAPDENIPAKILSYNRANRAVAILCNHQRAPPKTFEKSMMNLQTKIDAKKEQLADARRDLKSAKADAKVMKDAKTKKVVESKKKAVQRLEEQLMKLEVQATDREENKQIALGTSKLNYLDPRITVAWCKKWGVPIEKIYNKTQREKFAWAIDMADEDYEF

Nucleic Acid [7] = test: Displacement of ethidium bromide from calf thymus DNA assessed as fluorescence intensity per microL of compound at 7 x 10^-5 M after 3 mins; format: nucleic-acid assay; details: Bos taurus
Nucleic Acid [8] = test: Binding affinity to calf thymus DNA assessed in MES00 buffer at pH 6.3 by isothermal titration calorimetry; format: nucleic-acid assay; details: Bos taurus

CC[N+](C)(CC)CN1C(=O)c2ccc3c4c(ccc(c24)C1=O)C(=O)N(C[N+](C)(CC)CC)C3=O
K (Nucleic Acid [1]): 0.85 ×10⁶ /M
K (Nucleic Acid [2]): 0.37 ×10⁶ /M
K (Nucleic Acid [3]): 3.6 ×10⁶ /M
K (Nucleic Acid [4]): 31 ×10⁶ /M
Ratio (Nucleic Acid [5]): 2.3
Activity [6]: 5.5 µM

CCCC[N+](C)(CCCC)CN1C(=O)c2ccc3c4c(ccc(c24)C1=O)C(=O)N(C[N+](C)(CCCC)CCCC)C3=O
K (Nucleic Acid [1]): 1.38 ×10⁶ /M
K (Nucleic Acid [2]): 0.38 ×10⁶ /M
K (Nucleic Acid [3]): 3.9 ×10⁶ /M
K (Nucleic Acid [4]): 78 ×10⁶ /M
Flu intensity (Nucleic Acid [7]): 358
Ratio (Nucleic Acid [5]): 3.6
Activity [6]: > 6.7 µM

CCC[N+](C)(CCC)CN1C(=O)c2ccc3c4c(ccc(c24)C1=O)C(=O)N(C[N+](C)(CCC)CCC)C3=O
K (Nucleic Acid [1]): 0.73 ×10⁶ /M
K (Nucleic Acid [2]): 0.24 ×10⁶ /M
K (Nucleic Acid [3]): 3 ×10⁶ /M
K (Nucleic Acid [4]): 43 ×10⁶ /M
Ratio (Nucleic Acid [5]): 3
Activity [6]: 6.7 µM

C[N+](C)(C)CN1C(=O)c2ccc3c4c(ccc(c24)C1=O)C(=O)N(C[N+](C)(C)C)C3=O
K (Nucleic Acid [1]): 1.11 ×10⁶ /M
K (Nucleic Acid [2]): 1.17 ×10⁶ /M
K (Nucleic Acid [8]): 15 ×10⁶ /M
Flu intensity (Nucleic Acid [7]): 400
Activity [6]: 3.5 µM
